Results on 5 compounds are retold here after publication PMC6680510, “Benzotriazine Di-Oxide Prodrugs for Exploiting Hypoxia and Low Extracellular pH in Tumors” (Molecules, 2019).

Like-named read-outs stand apart in the source and are kept apart here. A value given as a limit tells only on which side of the number the result lay.

Series [1] in a line: One-electron reduction potentials by pulse radiolysis. The series is classed as physicochemical. Particulars: pH 7.0, equilibrium with redox indicator shown in square brackets. As to the method:
One-electron reduction potentials (E^0′) were determined from the redox equilibria with methylviologen, MV^2+, (E^0′ = […], [34]), dimethyldiquat, V21^2+, (E^0′ = […], [35]), or triquat, TQ^2+, (E^0′ = −548 ± 7 mV [34]). […] Substituting the 3-alkanoic sidechain with the 3-aminoalkanoic sidechain on the BTO 1,4-dioxide lowers the E^0′, as does the addition of the cyclopentane ring. The combined effect is seen for 10a, where the E^0′ value is −565 mV, which is expected to be too low for significant bioreduction under hypoxia.
Time-resolved optical absorption and kinetic studies were carried out using the University of Auckland’s 4 MeV linear accelerator, which has been previously described. The one-electron reduction potentials of the compounds (A) and couple E^0′(A/A^−), versus normal hydrogen electrode, were determined at pH 7.0 (2.5 mM phosphate) by establishing redox equilibria within 50 μs between three mixtures of one-electron reduced A and the viologen reference compounds, MV^2+, TQ^2+ and V21^2+. The determined equilibrium constants were used to calculate the ΔE values using the Nernst equation, correcting for ionic strength effects, as described in the literature.

The subject of series [2] is SiHa cells. Nature of the series: IC50 assay (inhibition of proliferation, 4 h exposure, SRB). The conditions noted are these: SiHa. As to the method:
Cells were seeded in 96-well plates (SiHa or FaDu 1500 cells/well, UT-SCC-74B 800 cells/well) in 100 μL. After incubation for 2 h, the drugs were added in 50 μL of the same titrated medium at 3× the final concentration to duplicate the wells. After a further 4 h the plates were checked for drug precipitation using a phase contrast microscope, then drugs were removed by aspirating and washing with the standard (pH 7.4) medium, then aspirating again and adding 150 μL of the medium. Cultures were then grown for 5 days before staining with sulphorhodamine B and measuring absorbance, with the estimation of IC50 values using 4-parameter logistic regression, as previously carried out.
The medium and plasticware was equilibrated in the chamber for 3 days prior to use. In the anoxia experiments, FaDu cells were plated in poly-L-lysine coated plates (Corning Cat # 356461) to improve attachment.
Cells were subsequently grown under standard cell culture conditions (oxia, pHe 7.4) for 5 days before staining with sulforhodamine B (SRB). […] (B) SN30000 (2). (C) BTO acid 4a. Values are means and errors are ranges for duplicate cultures in a single experiment. Fitted curves are 4-parameter logistic regressions. PCR = pH cytotoxicity ratio. ACR = anoxia cytotoxicity ratio. TMR = tumor microenvironment ratio.

For another series, the system named is FaDu cells. Described as above. The series is classed as cell-based.
In series [3] the test system is SiHa cells.
Procedure: In these experiments, cell pellets were collected by centrifugation and ^3H-mannitol was used as a cell-excluded marker to enable correction for the entrapped extracellular medium.
Log-phase cultures were dissociated with trypsin/EDTA, followed by the addition of the medium with DNAase I (Sigma DN-25) at 100 μg/mL for 5 min at 37 °C to minimize clumping. The cell pellets were collected by centrifugation and resuspended in αMEM with 5% FBS at pH 7.4 or 6.5 to 2 × 10^6 cells/mL. Samples (12 mL) were equilibrated with magnetic stirring at 37 °C under flowing humidified 5% CO2/air or N2 (50–100 mL/min), as previously described [86]. After equilibration for 60 min, the compounds were added in 50 μL of DMSO. The samples (5 mL) were withdrawn 5 and 60 min later, where the cell pellets were then collected by centrifugation and 4 mL of the supernatant was discarded. The pellets were resuspended in the remaining 1 mL, transferred to microcentrifuge tubes containing 7 μL ^3H-mannitol (740 GBq/mmol, American Radiolabeled Chemicals Inc., St. Louis, MO) as an extracellular marker, and then centrifuged (11,000g × 30s). The supernatant was removed and frozen at −80 °C (extracellular samples) and the tubes were centrifuged again, and any remaining medium was carefully removed. Ice-cold MeOH (80 μL) was added to the pellets which were disrupted by pipetting and stored at −80 °C (intracellular samples). When these were thawed for HPLC analysis (Section 4.12), the volume of extracellular water trapped in the pellets was determined by the scintillation counting (PerkinElmer Tri-Carb B2910TR Liquid Scintillation) of 25 μL of each extracellular and intracellular sample in 3 mL of Emulsifier-Safe™ scintillation cocktail (PerkinElmer). The extracellular volume in each intracellular sample was used to correct the intracellular drug concentration as previously described [87].
The samples were analyzed using an Agilent 1200 HPLC with a diode array absorbance detector and autosampler maintained at 4 °C (Agilent Technologies). The frozen samples were thawed, then centrifuged (11,000g × 5 min), and then extracellular samples were injected directly (typically 20 μL), while for the intracellular samples 30 μL was mixed 1:1 with αMEM and 50 μL was injected. […] All calibration curves were linear (R^2 > 0.999). The column was an Agilent ZORBAX Eclipse (XDB-C18, 5u, 2.1 × 150 mm, Agilent Technologies) with a flow rate of 0.4 mL/min. For SN30000 (2), the mobile phase was a mixture of 80% MeCN/water v/v (A), and a 45 mM formate buffer at a pH 4.5, eluting with a linear gradient of 5–100% A over 18 min. The same method was used for the BTO acids, except for 4a, where the aqueous mobile phase pH was reduced to 3.5.
Values are mean and SEM for 3 replicates. ND: Not detected.
Series [4] concerns SiHa cells. Description: Metabolism and uptake of ester 4b in anoxic single cell suspensions. Particulars: anoxic SiHa suspensions after addition of 4b (150 μM). In kind it is in vitro ADME. From the text:
If the anionic sidechain of the BTO acids results in low intracellular concentrations, with reductive metabolism occurring largely at the cell surface, the corresponding esters would be expected to provide improved delivery to the intracellular compartment (consistent with their higher cytotoxic potencies, as noted in Section 2.5). To test this, we compared the metabolism of ester 4b (Figure 7A) with its corresponding acid 4a (Figure 7B) by monitoring extracellular concentrations in anoxic SiHa suspensions. The rates of metabolism of both compounds were unaffected by pHe, consistent with the results for 4a in Figure 5B. The ester was metabolized more rapidly than the acid, with only a trace of acid 4a detected transiently as an extracellular metabolite (Figure 7A). The major metabolites were the less polar 1-oxide, 15a, and the 1-oxide of the ester, 16a. In separate experiments with higher initial concentrations of 4b, 15a was again the main extracellular metabolite (Figure 7C, left). […] Compound 4b itself was not detected in the intracellular samples, presumably reflecting a lack of retention in cells and the very low intracellular volume, which will compromise analytical sensitivity (only 2 × 10^6 cells were collected for each analysis in this experiment).
Figure 7 Metabolism of BTO ester 4b and the corresponding acid 4a by anoxic SiHa single cell suspensions (2 × 10^6 cells/mL). (A) Extracellular concentrations following the addition of 4b (50 μM). (B) Extracellular concentrations following the addition of 4a (50 μM). (C) Extracellular (left) and intracellular (right) concentrations following the addition of 4b (150 μM). Values are means and errors are SEM for 3 replicate cultures.

A short description of series [5]: Solubility in AlphaMEM + 5% FBS, pH 7.4. The conditions noted are these: culture medium (AlphaMEM + 5% FBS), pH 7.4, plasma or biological fluid, thermodynamic from solid.
Series [6] deals with reduction of BTOs to their N-1-oxides by SiHa cells. Description: WST-1 inhibition of anoxic reduction of BTOs to N-1-oxides. The series is classed as cell-based. From the text:
One possibility for this is that the BTO acids are reduced to the 1-oxides by an extracellular one-electron reductase. To test this, we evaluated whether the cell-excluded disulfonic acid tetrazolium salt WST-1 could compete with BTO acids for one-electron reduction. WST-1 is a known electron acceptor for one-electron reduction by the plasma membrane electron transport system (PMET) and is widely used as a cell viability assay, although the latter application uses 1-methoxyphenazine methylsulphate (mPMS) as an electron transfer intermediate. Given the possibility that mPMS could cross the plasma membrane itself, we used WST-1 without mPMS to ensure that the electron donor is a cell surface reductase.
The log-phase cells were trypsinized and the pellets were transferred to the anaerobic chamber and resuspended in equilibrated αMEM + 5% FBS at pH 7.4 and plated (10^5 cells in 100 μL/well for experiments with WST1, otherwise 2 × 10^5 cells/well). After incubation at 37 °C for 2 h, 20 μL was replaced with the anoxic medium containing 5× the final concentrations of test compounds with or without WST-1 (1 mM, Toronto Research Chemicals). A cell-free medium used as a control to check for reduction in the anoxic medium. Cultures were mixed gently, incubated for a further 2 h, then the extracellular medium was removed and 200 μL of ice-cold MeOH was added to the monolayers. The MeOH extract was transferred to the medium sample (thus combining the intracellular and extracellular samples). The pooled samples (combining the intracellular and extracellular samples) were removed from anoxic chamber, then centrifuged (13000g, 30 s) and frozen for subsequent HPLC analysis. Cell-free wells were used for single-point calibration of the parent compounds and 1-oxides in each experiment.
Figure 8 Inhibition of reduction of BTOs to their N-1-oxides by the cell-excluded electron acceptor WST-1. SiHa cells were seeded in 96-well plates at 10^6 cells/mL and exposed to the compounds (50 μM) with the indicated concentrations of WST-1 under anoxia for 2 h. Total (pooled intracellular and extracellular) amounts of the 1-oxide metabolites were determined by HPLC. Values are mean and SEM for two experiments with triplicate cultures at each concentration.
On the technique in general: Tetrazolium dyes change colour on reduction, which living cells bring about.

For series [7] the following is noted: reference viologen; cited from earlier work.

With “3-((2-Carboxyethyl)amino)-7,8-dihydro-6H-indeno[5,6-e][1,2,4]triazine 1,4-Dioxide [Compound 11a]”, the “E^0′ one-electron reduction potential” value in series [1] was −481 ± 10 [MV^2+] mV. In addition, the “TMR (overall TME ratio = oxic IC50 pHe 7.4/anoxic IC50 pHe 6.5)” value in the series on SiHa cells [2] came out at 15.9 ± 1.6. Also, the entries for the “PCR Anoxic (IC50 at pHe 7.4/IC50 at pHe 6.5)” value (shortened to “PCR Anoxic”) in the series with SiHa cells [2] (anoxic) and in the series with FaDu cells (anoxic) were 4.94 ± 1.14 and greater than 1, respectively. For the same compound, the “PCR oxic (IC50 at pHe 7.4/IC50 at pHe 6.5)” value (“PCR oxic” below) in the series on SiHa cells [2] (oxic) was determined as 4.18 ± 0.21. Besides, the IC50 (commonly the concentration that gives 50% inhibition) in the series with SiHa cells [2] (read-out: Anoxic IC50, pHe 6.5, 4 h, anoxic) is 145 ± 13 µM; with SiHa cells [2] (read-out: Anoxic IC50, pHe 7.4, 4 h, anoxic), 714 ± 152 µM; with SiHa cells [2] (read-out: Oxic IC50, pHe 6.5, 4 h, oxic), 551 ± 16 µM; with SiHa cells [2] (read-out: Oxic IC50, pHe 7.4, 4 h, oxic), 2300 ± 92 µM; in the series on FaDu cells (pHe 6.5, 4 h, anoxic, read-out: Anoxic IC50), 3810 ± 390 µM; with FaDu cells (pHe 6.5, 4 h, oxic, read-out: Oxic IC50) it was greater than 4000 µM. Besides, the IC50 is greater than 4000 µM in the series on FaDu cells (pHe 7.4, 4 h, anoxic, read-out: Anoxic IC50) and greater than 4000 µM in the series with FaDu cells (pHe 7.4, 4 h, oxic, read-out: Oxic IC50). Further, in the series with FaDu cells, the “TMR (oxic IC50 pHe 7.4/anoxic IC50 pHe 6.5)” value is reported as greater than 1. In addition, in the series with FaDu cells (pHe 6.5), the “ACR (oxic IC50/anoxic IC50)” value is reported as greater than 1. Moreover, the “Ci ratio (Ci at pHe 6.5/Ci at pHe 7.4)” value with SiHa cells [3] is 4.4 ± 1.2 fold. In addition, the “Ci/Ce, pHe 6.5 Obs 5 min” value in the series on SiHa cells [3] is 0.17 ± 0.02. In the series with SiHa cells [3], the “Ci/Ce, pHe 6.5 Obs 60 min” value was 0.29 ± 0.02. The “Ci/Ce, pHe 7.4 Obs 5 min” value in the series on SiHa cells [3] is on record as less than 0.1. Besides, in the series on SiHa cells [3], the “Ci/Ce, pHe 7.4 Obs 60 min” value is given as less than 0.1.
For the compound `COC(=O)CCc1n[n+]([O-])c2ccccc2[n+]1[O-]` [Compound 4b, 3-(3-Methoxy-3-oxopropyl)benzo[e][1,2,4]triazine 1,4-Dioxide], the melting point (in general, the temperature, or range, at which the solid turns liquid) lay in the range of 89 to 91 °C. The “E^0′ one-electron reduction potential” value in series [1] was −363 ± 7 [MV^2+] mV. For the same compound, the IC50 with SiHa cells [2] (Homo sapiens, 4 h, read-out: Anoxic IC50, SiHa, pHe 6.5, 4 h, anoxic) turned out to be 1.8 ± 0.46 µM. The IC50 with SiHa cells [2] (Homo sapiens, 4 h, read-out: Anoxic IC50, SiHa, pHe 7.4, 4 h, anoxic) came to 1.4 ± 0.1 µM. For the same compound, the IC50 with SiHa cells [2] (Homo sapiens, 4 h, read-out: Oxic IC50, SiHa, pHe 6.5, 4 h, oxic) worked out at 26.3 ± 7.1 µM. The IC50 in the series with SiHa cells [2] (Homo sapiens, 4 h, read-out: Oxic IC50, SiHa, pHe 7.4, 4 h, oxic) amounted to 34.4 ± 3.5 µM. The “TMR (overall TME ratio = oxic IC50 pHe 7.4/anoxic IC50 pHe 6.5)” value with SiHa cells [2] turned out to be 19.1 ± 5.3. Besides, in the series with SiHa cells [2] (anoxic), the “PCR Anoxic” value came to 0.78 ± 0.21. For the same compound, the “PCR oxic” value in the series with SiHa cells [2] (oxic) stood at 1.31 ± 0.38. Moreover, the “ACR (anoxic cytotoxicity ratio = oxic IC50/anoxic IC50)” value in the series with SiHa cells [2] (pHe 6.5) is given as 14.5 ± 5.4. In the series with SiHa cells [2] (pHe 7.4), the “ACR (anoxic cytotoxicity ratio = oxic IC50/anoxic IC50)” value came to 24.6 ± 3.1. Moreover, in the series on FaDu cells, the “TMR (oxic IC50 pHe 7.4/anoxic IC50 pHe 6.5)” value is 42.3 ± 2.6. Besides, the IC50 with FaDu cells (Homo sapiens, 4 h, pHe 6.5, 4 h, anoxic, read-out: Anoxic IC50) was 3.3 ± 0.11 µM. Further, the concentration for half-maximal inhibition (IC50) in the series with FaDu cells (Homo sapiens, 4 h, pHe 6.5, 4 h, oxic, read-out: Oxic IC50) is 98 ± 12 µM. For the same compound, in the series on FaDu cells (Homo sapiens, 4 h, pHe 7.4, 4 h, anoxic, read-out: Anoxic IC50), the half-maximal inhibitory concentration (IC50) worked out at 3.2 ± 0.38 µM. The IC50 with FaDu cells (Homo sapiens, 4 h, pHe 7.4, 4 h, oxic, read-out: Oxic IC50) worked out at 140 ± 7 µM. Besides, the “PCR Anoxic” value in the series on FaDu cells (anoxic) is 0.97 ± 0.12. In addition, the “PCR oxic” value in the series with FaDu cells (oxic) stood at 1.43 ± 0.19. For the same compound, the “ACR (oxic IC50/anoxic IC50)” value in the series with FaDu cells (pHe 6.5) is 29.6 ± 3.8. The “ACR (oxic IC50/anoxic IC50)” value in the series on FaDu cells (pHe 7.4) was 43.6 ± 5.7. Besides, the “Detection in intracellular samples” value with SiHa cells [4] is “not detected”. Moreover, the solubility – broadly, the dissolved amount per volume that the medium holds – in series [5] came out at 17.7 mM.
Regarding `O=C(O)CCc1nc2ccccc2[n+]([O-])n1` [Compound 15a, 3-(2-Carboxyethyl)benzo[e][1,2,4]triazine 1-Oxide], the melting point is 152 to 154 °C (dec.). Also, the “Intracellular concentration, fold lower than that of acid 4a” value in the series on SiHa cells [4] is recorded as “approximately 10 fold”.
As for `O=[N+]([O-])c1ccc(-[n+]2nc(-c3ccc(S(=O)(=O)O)cc3S(=O)(=O)[O-])nn2-c2ccc(I)cc2)cc1` [WST-1], the IC50 in [6] (read-out: IC50 for inhibition of anoxic reduction of 4a to N-1-oxide 15a, substrate 4a 50 μM, anoxia 2 h) was 7.05 µM; in series [6] (read-out: IC50 for inhibition of anoxic reduction of 7a to N-1-oxide 15d, substrate 7a 50 μM, anoxia 2 h) it was 14.3 µM; in [6] (substrate SN30000 50 μM, anoxia 2 h, read-out: IC50 for inhibition of metabolic reduction of SN30000), greater than 1000 µM; in series [6] (substrate TPZ 50 μM, anoxia 2 h, read-out: IC50 for inhibition of metabolic reduction of TPZ), greater than 1000 µM.
For the compound `c1cc[n+]2c(c1)-c1cccc[n+]1CCC2` [triquat, 7,8-dihydrodipyrido-[1,2-a:2′,1′-c][1,4]diazepinedium], the “E^0′ of redox indicator” value in series [7] was −548 ± 7 mV.
